This test concerns the target T1, CDK12 (Homo sapiens, UniProt Q9NYV4).
T1 construct: endogenous in cells; host or cells: CAL-120 human breast cancer cells (DSMZ ACC 459)
Nature of the test: CDK12 protein level in CAL-120 cells (Protein Simple). Type of test: cell-based. The conditions noted are these: 18 h, CDK12/HSP90 peak area ratio, read-out: CDK12 protein level in CAL-120 breast ca cells DC50-[mol/l] (median). The procedure: CAL-120 human breast cancer cells (DSMZ ACC 459) were seeded at 300,000 cells/well in 6-well plates containing 2 mL of growth medium (DMEM, 10% FCS, glutamine) and incubated for 24 h at 37° C. in an humidified incubator. Test compounds were added at various concentrations, control wells received solvent (DMSO), and the plates were incubated for another 18 h at 37° C. Cells were washed 2 times with PBS and lysed in 75 microL lysis buffer (MSD-Puffer (MSD, #R^60TX-2), +1% SDS+PhosSTOP (Roche #04906837001)+ complete mini (Roche #04693159001)) by scraping. The lysates were pushed 2 times through Qiashedders followed by centrifugation at 14,000 rpm for 30-50 sec. The supernatant was stored at −20° C. […] CDK12 and HSP90 (loading control) were detected using anti-human CDK12 antibody (Cell Signaling Technologies (CST) #11793) at 1:25 dilution and anti-human HSP90 antibody (CST #4877) at 1:5,000 dilution. CDK12 and HSP90 peak areas were determined using Protein Simple Compass software. Ratio of CDK12/HSP90 peak areas were calculated for each sample, and DC50 values (degrading concentration to achieve 50% reduction relative to vehicle treated control) were determined by means of a 4 parameter fit.

SMILES strings stand for the structures. Where only a bound is given, the exact number is not on record here.

This note sets out measurements from patent US20230106032A1, “IMIDAZOTRIAZINES ACTING ON CANCER VIA INHIBITION OF CDK12” (Bayer Aktiengesellschaft, priority 2020, published 2023).

T1 sequence (Q9NYV4 whole entry): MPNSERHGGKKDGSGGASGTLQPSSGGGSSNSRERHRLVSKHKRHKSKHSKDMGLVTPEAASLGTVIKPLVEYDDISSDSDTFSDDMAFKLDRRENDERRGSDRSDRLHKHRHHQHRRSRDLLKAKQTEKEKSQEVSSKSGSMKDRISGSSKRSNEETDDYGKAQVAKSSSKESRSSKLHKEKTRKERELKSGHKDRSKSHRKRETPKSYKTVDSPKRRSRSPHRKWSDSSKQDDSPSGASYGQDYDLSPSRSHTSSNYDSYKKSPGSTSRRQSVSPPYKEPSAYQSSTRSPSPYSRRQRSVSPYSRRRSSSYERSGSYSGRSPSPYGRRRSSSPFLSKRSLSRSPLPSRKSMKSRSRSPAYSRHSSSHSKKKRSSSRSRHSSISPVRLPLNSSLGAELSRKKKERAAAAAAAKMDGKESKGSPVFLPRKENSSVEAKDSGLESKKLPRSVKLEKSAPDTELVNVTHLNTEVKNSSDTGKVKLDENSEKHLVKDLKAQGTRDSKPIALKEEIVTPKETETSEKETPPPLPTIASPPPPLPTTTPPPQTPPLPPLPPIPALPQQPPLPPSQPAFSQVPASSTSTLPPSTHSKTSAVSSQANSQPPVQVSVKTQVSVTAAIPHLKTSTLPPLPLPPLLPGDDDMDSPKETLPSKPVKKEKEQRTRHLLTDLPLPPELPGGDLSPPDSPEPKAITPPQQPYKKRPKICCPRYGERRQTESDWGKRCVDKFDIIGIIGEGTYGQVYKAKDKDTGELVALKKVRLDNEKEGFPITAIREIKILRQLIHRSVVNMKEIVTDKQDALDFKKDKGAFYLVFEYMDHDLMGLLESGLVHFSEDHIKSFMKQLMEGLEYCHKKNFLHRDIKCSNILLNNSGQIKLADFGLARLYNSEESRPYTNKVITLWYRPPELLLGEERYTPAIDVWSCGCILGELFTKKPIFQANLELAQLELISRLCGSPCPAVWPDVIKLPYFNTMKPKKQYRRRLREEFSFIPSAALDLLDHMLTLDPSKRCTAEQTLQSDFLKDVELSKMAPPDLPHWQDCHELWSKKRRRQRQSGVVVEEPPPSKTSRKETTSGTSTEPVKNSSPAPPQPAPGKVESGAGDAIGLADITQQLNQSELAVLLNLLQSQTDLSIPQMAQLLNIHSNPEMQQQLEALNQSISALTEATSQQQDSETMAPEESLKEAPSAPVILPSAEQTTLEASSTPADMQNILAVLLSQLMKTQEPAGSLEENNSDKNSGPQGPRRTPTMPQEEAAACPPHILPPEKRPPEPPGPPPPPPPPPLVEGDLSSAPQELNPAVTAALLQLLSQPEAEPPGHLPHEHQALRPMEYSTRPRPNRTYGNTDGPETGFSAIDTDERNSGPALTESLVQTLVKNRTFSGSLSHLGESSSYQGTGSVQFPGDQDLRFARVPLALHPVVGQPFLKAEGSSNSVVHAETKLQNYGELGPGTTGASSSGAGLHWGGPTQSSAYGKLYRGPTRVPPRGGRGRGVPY
T1 sequence (O75909 whole entry partner): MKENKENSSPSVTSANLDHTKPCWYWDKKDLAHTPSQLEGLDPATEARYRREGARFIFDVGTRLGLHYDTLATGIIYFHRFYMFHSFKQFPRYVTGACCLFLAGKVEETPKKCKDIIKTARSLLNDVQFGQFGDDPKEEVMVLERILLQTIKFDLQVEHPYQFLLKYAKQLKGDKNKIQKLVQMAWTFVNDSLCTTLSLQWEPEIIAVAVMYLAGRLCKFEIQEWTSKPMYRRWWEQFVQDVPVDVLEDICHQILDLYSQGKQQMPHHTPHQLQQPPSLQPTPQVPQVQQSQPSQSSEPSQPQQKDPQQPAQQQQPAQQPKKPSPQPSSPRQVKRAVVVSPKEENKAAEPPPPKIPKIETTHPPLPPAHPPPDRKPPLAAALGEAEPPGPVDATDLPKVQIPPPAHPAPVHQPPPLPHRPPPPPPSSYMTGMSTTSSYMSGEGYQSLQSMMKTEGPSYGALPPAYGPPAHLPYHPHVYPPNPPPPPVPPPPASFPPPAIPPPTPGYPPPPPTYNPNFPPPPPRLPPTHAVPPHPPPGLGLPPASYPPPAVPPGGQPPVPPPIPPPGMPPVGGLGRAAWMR

As for `Brc1cnc2c(NCc3nc4ccccc4[nH]3)nc(N3CCOCC3)nn12` [Example 1, N-[(1H-benzimidazol-2-yl)methyl]-7-bromo-2-(morpholin-4-yl)imidazo[2,1-f][1,2,4]triazin-4-amine], the DC50 is less than 3 nM.
Next, `N#Cc1cnc2c(NCc3nc4ccccc4[nH]3)nc(N3CCOCC3)nn12` [Example 2, 4-{[(1H-benzimidazol-2-yl)methyl]amino}-2-(morpholin-4-yl)imidazo[2,1-f][1,2,4]triazine-7-carbonitrile]: 5.81 nM.
